Measurements: PMC3187668 (Chemmedchem, 2011)

Biological target: PI3Kα (Homo sapiens, UniProt P42336)
Test: […]-ATP lipid kinase assay
Type: biochemical

Sequence of PI3Kα (P42336 whole entry): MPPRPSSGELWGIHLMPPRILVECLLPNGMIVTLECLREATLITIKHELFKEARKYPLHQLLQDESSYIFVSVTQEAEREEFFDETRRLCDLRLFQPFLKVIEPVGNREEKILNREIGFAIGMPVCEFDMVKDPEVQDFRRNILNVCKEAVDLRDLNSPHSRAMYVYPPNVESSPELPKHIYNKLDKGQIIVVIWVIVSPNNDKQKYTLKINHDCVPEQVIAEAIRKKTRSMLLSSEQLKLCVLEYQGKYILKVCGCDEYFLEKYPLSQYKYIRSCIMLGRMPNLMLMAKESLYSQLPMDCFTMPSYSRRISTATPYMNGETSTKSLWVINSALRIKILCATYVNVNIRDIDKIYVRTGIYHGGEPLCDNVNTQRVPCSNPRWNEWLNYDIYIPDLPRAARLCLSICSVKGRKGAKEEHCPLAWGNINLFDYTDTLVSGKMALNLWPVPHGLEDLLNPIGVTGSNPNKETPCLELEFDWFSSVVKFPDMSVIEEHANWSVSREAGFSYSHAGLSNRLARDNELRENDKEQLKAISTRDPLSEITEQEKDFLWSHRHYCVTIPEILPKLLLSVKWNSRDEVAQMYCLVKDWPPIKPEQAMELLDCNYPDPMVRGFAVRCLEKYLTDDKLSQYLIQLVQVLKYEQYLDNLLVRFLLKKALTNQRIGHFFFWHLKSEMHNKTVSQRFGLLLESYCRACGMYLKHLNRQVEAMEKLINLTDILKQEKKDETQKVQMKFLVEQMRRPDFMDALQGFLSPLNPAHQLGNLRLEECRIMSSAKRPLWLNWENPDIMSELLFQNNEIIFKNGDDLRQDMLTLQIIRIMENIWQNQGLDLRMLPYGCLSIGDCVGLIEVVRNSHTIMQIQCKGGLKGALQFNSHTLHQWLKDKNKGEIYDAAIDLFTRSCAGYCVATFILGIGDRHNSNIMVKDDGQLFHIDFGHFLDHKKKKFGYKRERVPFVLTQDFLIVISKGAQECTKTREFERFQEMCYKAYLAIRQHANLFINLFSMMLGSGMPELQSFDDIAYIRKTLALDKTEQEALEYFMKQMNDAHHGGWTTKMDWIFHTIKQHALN
Sequence of PI3Kα (P27986 2-724 partner): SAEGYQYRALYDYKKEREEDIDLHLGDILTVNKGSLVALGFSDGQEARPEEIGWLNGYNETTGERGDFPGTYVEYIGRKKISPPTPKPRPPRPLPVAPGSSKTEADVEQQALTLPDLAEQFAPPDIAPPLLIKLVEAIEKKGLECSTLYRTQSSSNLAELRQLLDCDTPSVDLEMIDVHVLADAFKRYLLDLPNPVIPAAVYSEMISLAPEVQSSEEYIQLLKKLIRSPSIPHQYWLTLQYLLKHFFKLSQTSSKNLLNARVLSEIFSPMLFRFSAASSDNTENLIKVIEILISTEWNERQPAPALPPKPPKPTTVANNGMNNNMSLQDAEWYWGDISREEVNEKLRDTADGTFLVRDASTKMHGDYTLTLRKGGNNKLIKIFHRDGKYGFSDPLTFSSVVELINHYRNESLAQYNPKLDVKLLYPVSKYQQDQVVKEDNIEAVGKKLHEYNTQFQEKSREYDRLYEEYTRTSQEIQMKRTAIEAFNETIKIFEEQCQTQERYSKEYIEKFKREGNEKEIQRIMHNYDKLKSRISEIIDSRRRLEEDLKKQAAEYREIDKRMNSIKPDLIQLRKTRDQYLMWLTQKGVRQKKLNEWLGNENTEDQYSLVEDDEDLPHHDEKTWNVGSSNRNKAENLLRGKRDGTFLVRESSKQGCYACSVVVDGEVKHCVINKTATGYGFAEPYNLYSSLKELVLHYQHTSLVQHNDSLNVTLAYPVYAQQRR

Molecule `O=C1NC(=S)SC1=Cc1ccc2nccnc2c1` [compound 19, 19] has an IC50 of 3 nM.
